“And” between values parts separate entries of the source, which are not always exact repeats. Equal entries are not always repeated.
Conditions: for mass density: Liquid, isochoric method; for surface tension liquid-gas: Ring tensiometer

CCCCCCn1cc[n+](C)c1.F[P-](F)(F)(F)(F)F [1-hexyl-3-methylimidazolium hexafluorophosphate]
Conditions | mass density [kg/m3]
220.78 K, 20693 kPa | 1364.2
221.31 K, 2190 kPa | 1355.99
226.3 K, 10334 kPa | 1355.5
226.34 K, 30167 kPa | 1363.64
232.2 K, 39852 kPa | 1363.05
232.44 K, 20355 kPa | 1354.89
232.75 K, 1468.4 kPa | 1346.06
238.32 K, 29843 kPa | 1354.3
238.38 K, 10065 kPa | 1345.53
239.11 K, 50924 kPa | 1362.36
244.53 K, 39522 kPa | 1353.69
244.58 K, 20078 kPa | 1345.49
244.91 K, 1121.9 kPa | 1336.19
250.82 K, 49360 kPa | 1353.07
251.03 K, 10204 kPa | 1335.6
251.05 K, 29930 kPa | 1344.61
257.33 K, 19488 kPa | 1335.01
257.74 K, 40140 kPa | 1344.21
258.25 K, 1630.4 kPa | 1325.22
264.3 K, 29775 kPa | 1334.34
264.31 K, 10326 kPa | 1324.65
264.31 K, 29966 kPa | 1334.29
264.82 K, 50312 kPa | 1343.28
271.12 K, 19945 kPa | 1324.01
271.72 K, 40378 kPa | 1333.63
272.25 K, 1996.3 kPa | 1314.31
277.88 K, 100 kPa | 1308.85
278.37 K, 29980 kPa | 1323.33
278.39 K, 10230 kPa | 1313.74
278.81 K, 49975 kPa | 1332.93
283.3 K, 100 kPa | 1304.78
285.6 K, 39832 kPa | 1322.66
285.88 K, 20217 kPa | 1313.06
285.98 K, 1730.8 kPa | 1302.58
288.37 K, 100 kPa | 1300.82
293.01 K, 100 kPa | 1296.84
293.33 K, 11116 kPa | 1301.92
293.38 K, 30030 kPa | 1312.37
294.3 K, 49916 kPa | 1321.89
298.16 K, 127.6 kPa | 1293.38
298.21 K, 100 kPa | 1293.14
300.72 K, 20089 kPa | 1301.27
301.06 K, 39951 kPa | 1311.66
301.51 K, 940.4 kPa | 1290.78
303 K, 100 kPa | 1289.6
308.05 K, 100 kPa | 1285.34
308.93 K, 10526 kPa | 1290.11
308.93 K, 30141 kPa | 1300.53
309.51 K, 50444 kPa | 1310.89
313.17 K, 100 kPa | 1280.96
316.34 K, 18783 kPa | 1289.47
317.93 K, 100 kPa | 1277.34
318.19 K, 41900 kPa | 1299.68
318.48 K, 1643.7 kPa | 1277.43
323.16 K, 100 kPa | 1273.19
325.52 K, 47639 kPa | 1299.1
325.7 K, 29844 kPa | 1288.64
325.86 K, 10002 kPa | 1276.79
328.09 K, 100 kPa | 1269.64
333.28 K, 100 kPa | 1265.48
334.93 K, 20139 kPa | 1276.01
336.11 K, 41946 kPa | 1287.71
336.59 K, 1430 kPa | 1262.76
338.63 K, 100 kPa | 1261.76
343.3 K, 100 kPa | 1257.98
344.61 K, 1230.6 kPa | 1256.88
345.06 K, 10024 kPa | 1262.06
345.06 K, 30866 kPa | 1275.14
347.93 K, 50753 kPa | 1286.78
348.55 K, 100 kPa | 1254.47
353.15 K, 18882 kPa | 1261.36
353.15 K, 40148 kPa | 1274.42
353.16 K, 10034 kPa | 1256.16
353.61 K, 100 kPa | 1250.75
358.19 K, 100 kPa | 1247.22
364.46 K, 100 kPa | 1242.36

CCCCCCCCCCCCCC[P+](CCCCCC)(CCCCCC)CCCCCC.N#C[N-]C#N [tetradecyl(trihexyl)phosphonium dicyanamide]
Conditions | mass density [kg/m3]
240.45 K, 9948.1 kPa | 936.26
247.9 K, 20013 kPa | 935.78
248.45 K, 1061.1 kPa | 928.34
255.19 K, 9753 kPa | 927.91
255.47 K, 29932 kPa | 935.43
255.48 K, 30358 kPa | 935.75
262.34 K, 100 kPa | 919.18
263.19 K, 40368 kPa | 935.25
263.31 K, 20048 kPa | 927.4
265.01 K, 1331.4 kPa | 918.74
268.5 K, 100 kPa | 915.58
271.01 K, 49601 kPa | 934.43
271.54 K, 9121.6 kPa | 918.33
271.95 K, 29894 kPa | 926.34
273.37 K, 100 kPa | 912.9
278.2 K, 100 kPa | 910.1
279.99 K, 39498 kPa | 925.84
280.34 K, 20094 kPa | 917.77
281.41 K, 1813.9 kPa | 908.67
283.3 K, 100 kPa | 907.06
288.09 K, 48847 kPa | 925.34
288.37 K, 100 kPa | 904.29
289.04 K, 30059 kPa | 917.24
289.74 K, 10390 kPa | 908.18
293.14 K, 100 kPa | 901.37
297.73 K, 39781 kPa | 916.7
298.14 K, 20028 kPa | 907.66
298.15 K, 119.7 kPa | 898.63
298.21 K, 100 kPa | 898.81
298.4 K, 1119.7 kPa | 898.73
303.08 K, 100 kPa | 895.87
306.53 K, 28505 kPa | 907.16
307.06 K, 9995.2 kPa | 898.22
307.27 K, 49935 kPa | 916.12
308.18 K, 100 kPa | 892.91
313.09 K, 100 kPa | 890.2
316.64 K, 19643 kPa | 897.65
316.65 K, 39471 kPa | 906.55
318.03 K, 100 kPa | 887.53
318.37 K, 1160.7 kPa | 887.84
323.32 K, 100 kPa | 884.69
327.54 K, 49978 kPa | 905.9
327.66 K, 10032 kPa | 887.3
327.67 K, 30114 kPa | 897.01
328.16 K, 100 kPa | 881.94
332.96 K, 100 kPa | 879.42
338.03 K, 100 kPa | 876.79
338.23 K, 19830 kPa | 886.69
338.63 K, 41032 kPa | 896.36
339.22 K, 1500.6 kPa | 876.45
342.86 K, 100 kPa | 873.89
348.12 K, 100 kPa | 871.1
348.37 K, 49973 kPa | 895.79
349.27 K, 10043 kPa | 875.89
349.28 K, 29863 kPa | 886.05
353.28 K, 100 kPa | 868.29
358 K, 100 kPa | 865.81
364.53 K, 100 kPa | 862.18

Conditions | surface tension liquid-gas
283.57 K | 32.46 mN/m
283.61 K | 32.69 mN/m
288.08 K | 32.54 mN/m
288.09 K | 31.93 mN/m
293.35 K | 31.85 mN/m
293.41 K | 32.02 mN/m
298.2 K | 31.68 mN/m
298.24 K | 31.82 mN/m
303.15 K | 30.98 mN/m
303.2 K | 31.32 mN/m
308.16 K | 30.28 mN/m
308.17 K | 30.84 mN/m
313.21 K | 29.67 mN/m
313.25 K | 30.4 mN/m
318.29 K | 29.57 mN/m
318.3 K | 30.08 mN/m
323.33 K | 29.65 mN/m
323.39 K | 29.41 mN/m
328.05 K | 28.72 mN/m
328.09 K | 29.18 mN/m
333.58 K | 28.62 mN/m and 28.77 mN/m
338.55 K | 28.21 mN/m
338.57 K | 28.35 mN/m
343.55 K | 27.83 mN/m
343.57 K | 27.93 mN/m
348.56 K | 27.59 mN/m
348.64 K | 27.56 mN/m
353.46 K | 26.45 mN/m
353.49 K | 27.11 mN/m
358.44 K | 26.17 mN/m
358.57 K | 26.7 mN/m
365.15 K | 25.74 mN/m
365.21 K | 26.14 mN/m
